Laboratory results: US20170305922A1, “CARM1 INHIBITORS AND USES THEREOF” (Epizyme, Inc., priority 2014, published 2017)

Columns and labels:
Human CARM1 (PRMT4) = biological target: T1, Human CARM1 (PRMT4) (Homo sapiens, UniProt Q86X55); assay: CARM1 enzyme assay on peptide substrates (3H-SAM Flashplate); conditions: Biochemical assay; CARM1 0.25 nM, 3H-SAM 30 nM, peptide 250 nM; read-out: Biochem IC50
T1 construct: Flag-CARM1-His was eluted with 200 ug/ml FLAG peptide in buffer A; made in house; host or cells: HEK 293F cells infected with recombinant baculovirus (pFastBacMam)
T1 sequence (Q86X55 1-585 isoform Q86X55-1): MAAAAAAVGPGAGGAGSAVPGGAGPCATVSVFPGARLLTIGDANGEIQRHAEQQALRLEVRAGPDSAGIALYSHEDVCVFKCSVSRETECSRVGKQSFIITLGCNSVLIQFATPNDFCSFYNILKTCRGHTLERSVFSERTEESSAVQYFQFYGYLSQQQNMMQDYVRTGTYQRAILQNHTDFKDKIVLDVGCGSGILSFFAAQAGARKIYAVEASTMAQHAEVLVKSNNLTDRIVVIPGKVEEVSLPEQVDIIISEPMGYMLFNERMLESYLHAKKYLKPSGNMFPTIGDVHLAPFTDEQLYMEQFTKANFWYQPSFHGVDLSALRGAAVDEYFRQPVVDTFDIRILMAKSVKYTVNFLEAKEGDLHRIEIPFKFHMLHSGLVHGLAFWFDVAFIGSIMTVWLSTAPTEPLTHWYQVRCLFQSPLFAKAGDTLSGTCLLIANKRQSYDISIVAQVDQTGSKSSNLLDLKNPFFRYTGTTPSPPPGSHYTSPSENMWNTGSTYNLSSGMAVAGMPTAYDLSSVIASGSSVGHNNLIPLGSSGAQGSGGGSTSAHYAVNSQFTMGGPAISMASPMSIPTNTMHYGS
Description: S-adenosylmethionine (SAM), S-adenosylhomocysteine (SAH), bicine, Tween20, dimethylsulfoxide (DMSO), bovine skin gelatin (BSG), sodium butyrate and Tris(2-carboxyethyl)phosphine hydrochloride solution (TCEP) were purchased from Sigma-Aldrich at the highest level of purity possible. ^3H-SAM was purchase from American Radiolabeled Chemicals with a specific activity of 80 Ci/mmol. 384-well streptavidin Flashplates were purchased from PerkinElmer.
Peptide representative of human histone H3 residues 16-30 was synthesized with an N-terminal linker-affinity tag motif and a C-terminal amide cap by 21st Century Biochemicals. […] The sequence was Biot-Ahx-[…]-amide and contained a monomethylated arginine at position 26 (SEQ ID NO.:1).
The gene sequence encoding isoform1 containing a deletion of amino acids 539-561 was amplified subsequently and subcloned into pFastBacMam (Viva Biotech).
Recombinant baculovirus were generated according to Bac-to-Bac kit instructions (Life Technologies). Protein over-expression was accomplished by infecting exponentially growing HEK 293F cell culture at 1.3×10^6 cell/ml with virus (MOI=10) in the presence of 8 mM sodium butyrate. Infections were carried out at 37° C. for 48 hours, harvested by centrifugation, and stored at −80° C. for purification.
Column was washed with 500 mM NaCl in buffer A and Flag-CARM1-His was eluted with 200 ug/ml FLAG peptide in buffer A. Pooled fractions were dialyzed in 20 mM Tris, 150 mM NaCl, 5% glycerol and 1 mM DTT, pH 7.8.
The assays were all performed in a buffer consisting of 20 mM Bicine (pH=7.6), 1 mM TCEP, 0.005% BSG, and 0.002% Tween 20, prepared on the day of use. Compounds in 100% DMSO (1 ul) were spotted into a polypropylene 384-well V-bottom plates (Greiner) using a Platemate Plus outfitted with a 384-channel head (Thermo Scientific). DMSO (1 ul) was added to Columns 11, 12, 23, 24, rows A-H for the maximum signal control and 1 ul of SAH, a known product and inhibitor of CARM1, was added to columns 11, 12, 23, 24, rows I-P for the minimum signal control. A cocktail (40 ul) containing the CARM1 enzyme was added by Multidrop Combi (Thermo-Fisher). The compounds were allowed to incubate with CARM1 for 30 min at room temperature, then a cocktail (10 ul) containing ^3H-SAM and peptide was added to initiate the reaction (final volume=51 ul). The final concentrations of the components were as follows: CARM1 was 0.25 nM, ^3H-SAM was 30 nM, peptide was 250 nM, SAH in the minimum signal control wells was 1 mM, and the DMSO concentration was 2%. The assays were stopped by the addition of non-radiolabeled SAM (10 ul) to a final concentration of 300 uM, which dilutes the ^3H-SAM to a level where its incorporation into the peptide substrate is no longer detectable. 50 ul of the reaction in the 384-well polypropylene plate was then transferred to a 384-well Flashplate and the biotinylated peptides were allowed to bind to the streptavidin surface for at least 1 hour before being washed once with 0.1% Tween20 in a Biotek ELx405 plate washer. The plates were then read in a PerkinElmer TopCount plate reader to measure the quantity of ^3H-labeled peptide bound to the Flashplate surface, measured as disintegrations per minute (dpm) or alternatively, referred to as counts per minute (cpm).
where dpm=disintegrations per minute, cmpd=signal in assay well, and min and max are the respective minimum and maximum signal controls.
where top and bottom are the normally allowed to float, but may be fixed at 100 or 0 respectively in a 3-parameter fit. The Hill Coefficient normally allowed to float but may also be fixed at 1 in a 3-parameter fit. Y is the % inhibition and X is the compound concentration.

[1] = system: asymmetric di-methyl PABP1 in RKO cells; assay: RKO methylation assay: In Cell Western (ICW) for asymmetric di-methyl PABP1 (PABP1me2a); conditions: Cellular-based (PABP1me2a) ICW (In Cell Western) assay
Description: RKO adherent cells were purchased from ATCC (American Type Culture Collection), Manassas, Va., USA. DMEM/Glutamax medium, penicillin-streptomycin, heat inactivated fetal bovine serum, 0.05% trypsin and D-PBS were purchased from Life Technologies, Grand Island, N.Y., USA. Odyssey blocking buffer, 800CW goat anti-rabbit IgG (H+L) antibody, and Licor Odyssey infrared scanner were purchased from Licor Biosciences, Lincoln, Nebr., USA. Asymmetric di-methyl PABP1 antibody was purchased from Cell Signaling Technology, Danvers, Mass., USA. Methanol was purchased from VWR, Franklin, Mass., USA. 10% Tween 20 was purchased from KPL, Inc., Gaithersburg, Md., USA. Paraformaldehyde (PFA) was purchased from EM Sciences. DRAQ5 was purchased from Biostatus Limited, Leicestershire, UK.
RKO adherent cells were maintained in growth medium (DMEM/Glutamax medium supplemented with 10% v/v heat inactivated fetal bovine serum and 100 units/mL penicillin-streptomycin) and cultured at 37° C. under 5% CO2.
Cell treatment, In Cell Western (ICW) for detection of asymmetric di-methyl PABP1 and DNA content: RKO cells were seeded in assay medium at a concentration of 30,000 cells per mL to a poly-D-lysine coated 384 well culture plate (BD Biosciences 356697) with 50 μL per well. Compound (100 nL) from a 96-well source plate was added directly to 384 well cell plate. Plates were incubated at 37° C., 5% CO2 for 48 hours. After two days of incubation, plates were brought to room temperature outside of the incubator for ten minutes and blotted on paper towels to remove cell media. Cells were fixed for 20 minutes at room temperature by adding 50 ul of 8% PFA followed by aspiration of supernatant with the Biotek EL406 plate washer. Cells were then permeabilized by addition of 50 μL of ice cold 100% methanol directly to each well and incubated for 30 min at room temperature. After 30 min, plates were transferred to a Biotek EL406 plate washer and washed 2 times with 100 μL per well of wash buffer (1×PBS). Next 60 μL per well of Odyssey blocking buffer (Odyssey Buffer with 0.1% Tween 20 (v/v)) were added to each plate and incubated 1 hour at room temperature. Blocking buffer was removed and 20 μL per well of primary antibody was added (asymmetric-methyl PABP1) diluted 1:400 in Odyssey buffer with 0.1% Tween 20 (v/v)) and plates were incubated overnight (16 hours) at 4° C. Plates were washed 5 times with 100 μL per well of wash buffer. Next 20 μL per well of secondary antibody was added (1:800 800CW goat anti-rabbit IgG (H+L) antibody, 1:2000 DRAQ5 in Odyssey buffer with 0.1% Tween 20 (v/v)) and incubated for 1 hour at room temperature. The plates were washed 5 times with 100 μL per well wash buffer then 2 times with 100 μL per well of water. Plates were allowed to dry at room temperature then imaged on the Licor Odyssey machine which measures integrated intensity at 700 nm and 800 nm wavelengths. Both 700 and 800 channels were scanned.
First, the ratio for each well was determined by:
Each plate included fourteen control wells of DMSO only treatment (minimum inhibition) as well as fourteen control wells for maximum inhibition treated with 20 μM of a reference compound. The average of the ratio values for each control type was calculated and used to determine the percent […] for each test well in the plate. Reference compound was serially diluted three-fold in DMSO for a total of nine test concentrations, beginning at 20 μM.
Percent inhibition was determined and IC50 curves were generated using triplicate wells per concentration of compound.

Compound | IC50 (Human CARM1 (PRMT4)) [nM] | IC50 ([1]; Homo sapiens, RKO, 48 h) [nM] | IC50 ([1]; 48 hours) [nM]
CNC[C@@H](O)COc1ccc(Cl)c(-c2nc(-c3c(C)noc3C)c(C)c(N3Cc4cccnc4C3)n2)c1Cl [Example 150] | 16.2 | 2020 | 
CNC[C@@H](O)COc1ccc(Cl)c(-c2nc(-c3c(C)noc3C)c(C)c(N3CC4(CCN(C(=O)OCC(F)F)C4)C3)n2)c1 [Example 180] | 4.1 | 121 | 
CNC[C@@H](O)COc1ccc(Cl)c(-c2nc(-c3c(C)noc3C)c(C)c(N3Cc4cnc(N(C)C)cc4C3)n2)c1 [Example 183] | 1.8 | 31 | 
CNC[C@@H](O)COc1ccc(Cl)c(-c2nc(-c3c(C)noc3C)c(C)c(N3CC(C)(CO)C3)n2)c1 [Example 252] | 8.01 | 561 | 
CNC[C@@H](O)COc1ccc(Cl)c(-c2nc(-c3c(C)noc3C)c(C)c(N3Cc4cn(C)nc4C3)n2)c1 [Example 129] | 7.7 | 46 | 
CNC[C@@H](O)COc1ccc(Cl)c(-c2nc(-c3c(C)noc3C)c(C)c(N3Cc4cnc(N5CC(OC)C5)nc4C3)n2)c1 [Example 147] | 2.8 | 16 | 
CNC[C@@H](O)COc1ccc(Cl)c(-c2nc(-c3c(I)cnn3C)c(C)c(N3Cc4cccnc4C3)n2)c1 [Example 244] | 1.2 | 141 | 
CNC[C@@H](O)COc1ccc(Cl)c(-c2nc(-c3c(C)noc3C)c(C)c(N3Cc4ccnc(C)c4C3)n2)c1 [Example 200] | 2.1 | 47 | 
CC[C@@H]1CN(c2nc(-c3cc(OC[C@H](O)CNC)ccc3Cl)nc(-c3c(C)noc3C)c2C)CCN1CC(F)F [Example 203] | 4.6 | 200 | 
CNC[C@@H](O)COc1ccc(Cl)c(-c2nc(-c3c(C)noc3C)c(C)c(N3Cc4cnc(N5CCC5)nc4C3)n2)c1 [Example 105] | 3.2 | 11 | 
CNC[C@@H](O)COc1ccc(Cl)c(-c2nc(-c3c(C)noc3C)c(C)c(N3Cc4nc(C)n(C)c(=O)c4C3)n2)c1 [Example 66] | 3.7 | 261 | 
CNC[C@@H](O)COc1ccc(Cl)c(-c2nc(-c3c(C)noc3C)c(C)c(N3C[C@H]4CN(C(=O)C(F)(F)F)C[C@H]4C3)n2)c1 [Example 31] | 1.4 | 2150 | 
CNC[C@@H](O)COc1ccc(Cl)c(-c2nc(-c3c(C)noc3C)c(C)c(N3C[C@]4(C)CN(C(=O)OC)C[C@]4(C)C3)n2)c1 [Example 65] | 7.8 | 234 | 
CNC[C@@H](O)COc1ccc(Cl)c(-c2nc(-c3c(C)noc3C)c(C)c(N3Cc4cnn(C(C)C)c4C3)n2)c1 [Example 28] | 3.2 | 41 | 
CNC[C@@H](O)COc1ccc(Cl)c(-c2nc(-c3c(C)c(Cl)nn3C)c(C)c(N3Cc4cccnc4C3)n2)c1 [Example 84] | 1.6 | 28 | 
CNC[C@@H](O)COc1ccc(Cl)c(-c2nc(-c3c(C)noc3C)c(C)c(N3Cc4ccnc(N(C)C)c4C3)n2)c1 [Example 186] | 1.8 | 49 | 
CNC[C@@H](O)COc1ccc(Cl)c(-c2nc(-c3c(C)noc3C)c(C)c(N3Cc4cc(C)nc(C)c4C3)n2)c1 [Example 102] | 4.5 | 27 | 
CNC[C@@H](O)COc1ccc(Cl)c(-c2nc(-c3c(C)noc3C)c(C)c(N3CC4(CCN(CC(F)(F)F)C(=O)O4)C3)n2)c1 [Example 116] | 13.8 | 339 | 
CNC[C@@H](O)COc1ccc(Cl)c(-c2nc(-c3c(C)noc3C)c(C)c(N3CC4(CC(F)C4)C3)n2)c1 [Example 140] | 4.2 | 241 | 
CNC[C@@H](O)COc1ccc(Cl)c(-c2nc(-c3c(C)noc3C)c(C)c(N3CC4(CCN(C(=O)OC)CC4)C3)n2)c1 [Example 292] |  |  | 66.7
CNC[C@@H](O)COc1ccc(Cl)c(-c2nc(-c3c(C)noc3C)c(C)c(N3CC4(CCN(C(=O)OC)CC4)C3)n2)c1 [Example 261] |  | 53.9 | 
CNC[C@H](O)COc1ccc(Cl)c(-c2nc(-c3c(C)noc3C)c(C)c(N3CC4(CCN(C(=O)OC)CC4)C3)n2)c1 [Example 248] |  | 294 | 
